Data from patent US12679878B2, “CRF2 receptor agonists and their use in therapy” (SANOFI, priority 2020, dated 2026).
Where two headings read alike, the source gives them in different places. Starred links: 1 amine or outer side, 2 acyl side, 3 side chain; linkers in the order of their positions; H or OH if unused. Non-standard residues stand in square brackets, D forms with d. Residues, ends and D or L forms follow the SMILES beside them. Groups on a side chain read outwards from the residue. *: point of attachment. C18 diacid = O=C(O)CCCCCCCCCCCCCCCCC(=O)*; γGlu = O=C(O)[C@H](CCC(=O)[*:2])N[*:1]; AEEA = NCCOCCOCC(=O)O; Aib = CC(C)(N)C(=O)O

How the values were obtained:
Assay type in all cases: cell-based
human CRF2α receptor = target: T1, human CRF2α receptor (Homo sapiens, UniProt Q13324); test: cAMP agonism at human CRF2 α receptor in TeloHEAC cells (Example 7); details: cAMP HTRF, TeloHEAC cells stably expressing human CRF2 α
T1 construct: expressed in transfected cells; host or cells: TeloHEAC
T1 sequence (Q13324 1-411): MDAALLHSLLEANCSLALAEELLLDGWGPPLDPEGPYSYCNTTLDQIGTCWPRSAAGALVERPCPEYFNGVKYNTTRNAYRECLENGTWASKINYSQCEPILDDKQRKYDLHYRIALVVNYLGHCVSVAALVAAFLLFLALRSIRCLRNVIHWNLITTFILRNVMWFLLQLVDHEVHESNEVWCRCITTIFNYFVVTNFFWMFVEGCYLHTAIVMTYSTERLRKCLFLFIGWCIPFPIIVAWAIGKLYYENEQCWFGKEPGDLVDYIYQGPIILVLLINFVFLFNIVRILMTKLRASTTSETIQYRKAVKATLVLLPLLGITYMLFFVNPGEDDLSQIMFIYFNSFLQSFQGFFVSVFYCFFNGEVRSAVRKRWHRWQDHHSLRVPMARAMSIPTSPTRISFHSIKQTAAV
In short: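 Steps: thaw and wash cells; suspend in 1×HBSS, 20 mM HEPES, 0 or 0.1% HSA, 2 mM IBMX; add compound, 30 min RT; lyse with HTRF reagents, 1 h; read 665/620 nm. EC50 calculated, E% versus 1000 nM UCN2.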

rat CRF2R α receptor = test: cAMP agonism at rat CRF2R α receptor in A7R5 rat aortic smooth muscle cells (Example 8); details: cAMP HTRF, A7R5 rat aortic smooth muscle cell line, 0% HSA
In short: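 Thawed cryopreserved A7R5 cells in HBSS/20 mM HEPES (0 or 0.1% HSA) with 2 mM IBMX, 2000 cells/well, were exposed to compound for 30 min at room temperature. cAMP was read by HTRF (665/620 nm ratio) after 1 h with lysis reagents. Activity was normalised to 1000 nM urocortin 2 as 100%, and EC50 was taken as the concentration giving 50% of maximal activation.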

CRF1R receptor = target: T2, CRF1R receptor (Homo sapiens, UniProt P34998); test: cAMP activity at anti-target CRF1R, CRF1R-overexpression CHO cell line (Example 9); details: CRF1R-overexpression CHO cell line; for EC50: 0% HSA; for Emax: read-out: Emax (%)
T2 construct: host or cells: CHO-K1 clone 2
T2 sequence (P34998 24-415): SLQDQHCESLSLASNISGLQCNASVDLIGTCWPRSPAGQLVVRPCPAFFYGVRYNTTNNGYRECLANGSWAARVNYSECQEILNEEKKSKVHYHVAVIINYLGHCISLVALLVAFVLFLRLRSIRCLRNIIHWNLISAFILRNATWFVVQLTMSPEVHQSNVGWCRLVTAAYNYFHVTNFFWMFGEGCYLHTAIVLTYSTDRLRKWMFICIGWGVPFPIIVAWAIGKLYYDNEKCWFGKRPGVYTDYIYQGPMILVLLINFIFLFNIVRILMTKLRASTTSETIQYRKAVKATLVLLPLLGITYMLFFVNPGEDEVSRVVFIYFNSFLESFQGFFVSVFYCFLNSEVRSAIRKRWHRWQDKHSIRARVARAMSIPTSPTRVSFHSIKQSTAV
In short: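 cAMP accumulation was read by HTRF after 30 min at room temperature of compound treatment. Cells were cryopreserved CHO cells overexpressing CRF1R, plated at 2000/well in IBMX (2 mM)-containing HBSS/HEPES buffer with 0 or 0.1% HSA. Activity was normalized to 1000 nM UCN2 as 100%.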

[1] = 0% HSA, read-out: EC50 [nM], 0% HSA
[2] = 0.1% HSA, read-out: EC50 [nM], 0.1% HSA

Structure (SMILES): CC[C@H](C)[C@H](N)C(=O)N[C@H](C(=O)N[C@@H](CC(C)C)C(=O)N[C@@H](CO)C(=O)N[C@@H](CC(C)C)C(=O)N[C@@H](CC(=O)O)C(=O)N[C@H](C(=O)N1CCC[C@H]1C(=O)N[C@H](C(=O)N[C@@H](CCCCN)C(=O)N[C@@H](CC(C)C)C(=O)N[C@@H](CCCCNC(=O)COCCOCCNC(=O)COCCOCCNC(=O)CC[C@H](NC(=O)CCCCCCCCCCCCCCCCC(=O)O)C(=O)O)C(=O)N[C@@H](CCC(N)=O)C(=O)N[C@H](C(=O)N[C@@H](CC(C)C)C(=O)N[C@@H](CC(C)C)C(=O)N[C@@H](CCCCN)C(=O)N[C@@H](CCC(N)=O)C(=O)N[C@@H](CCC(=O)O)C(=O)N[C@@H](CCCNC(=N)N)C(=O)N[C@@H](CCC(N)=O)C(=O)N[C@@H](CCCCN)C(=O)N[C@@H](CCCCN)C(=O)N[C@@H](CCC(N)=O)C(=O)N[C@@H](CCCNC(=N)N)C(=O)N[C@@H](CCC(=O)O)C(=O)N[C@@H](CCC(N)=O)C(=O)N[C@@H](C)C(=O)N[C@@H](CCCCN)C(=O)N[C@H](C(=O)N[C@@H](CC(N)=O)C(=O)N[C@@H](CCCCN)C(=O)N[C@@H](CCC(N)=O)C(=O)N[C@H](C(=O)N[C@@H](CC(C)C)C(=O)N[C@@H](C)C(=O)N[C@@H](CCC(N)=O)C(=O)N[C@H](C(N)=O)C(C)C)[C@@H](C)CC)[C@@H](C)O)[C@@H](C)CC)[C@@H](C)CC)C(C)C)C(C)C [compound 86] (H-IVLSLDVPIKLK([AEEA-AEEA-γGlu-C18 diacid])QILLKQERQKKQREQAKTNKQILAQV-NH2; N-terminus assumed)
- EC50 (human CRF2α receptor; [1]): 0.11 nM
- EC50 (human CRF2α receptor; [2]): 5.7 nM
- EC50 (rat CRF2R α receptor): 0.69 nM
- EC50 (CRF1R receptor): > 1000 nM
- Emax (CRF1R receptor): 15.9%

Structure (SMILES): CC[C@H](C)[C@H](N)C(=O)N[C@H](C(=O)N[C@@H](CC(C)C)C(=O)N[C@@H](CO)C(=O)N[C@@H](CC(C)C)C(=O)N[C@@H](CC(=O)O)C(=O)N[C@H](C(=O)N1CCC[C@H]1C(=O)N[C@H](C(=O)N[C@@H](CCCCN)C(=O)N[C@@H](CC(C)C)C(=O)N[C@@H](CCCCNC(=O)COCCOCCNC(=O)COCCOCCNC(=O)CC[C@H](NC(=O)CCCCCCCCCCCCCCCCC(=O)O)C(=O)O)C(=O)N[C@@H](CCC(N)=O)C(=O)N[C@H](C(=O)N[C@@H](CC(C)C)C(=O)N[C@@H](CC(C)C)C(=O)N[C@@H](CCCCN)C(=O)N[C@@H](CCC(N)=O)C(=O)N[C@@H](CCC(=O)O)C(=O)N[C@@H](CCCNC(=N)N)C(=O)N[C@@H](CCC(N)=O)C(=O)N[C@@H](CCCCN)C(=O)N[C@@H](CCCCN)C(=O)N[C@@H](CCC(N)=O)C(=O)N[C@@H](CCCNC(=N)N)C(=O)N[C@@H](CCC(=O)O)C(=O)N[C@@H](CCCCN)C(=O)N[C@@H](C)C(=O)N[C@@H](CCCCN)C(=O)N[C@H](C(=O)N[C@@H](CC(N)=O)C(=O)N[C@@H](CCCCN)C(=O)N[C@@H](CCC(N)=O)C(=O)N[C@H](C(=O)N[C@@H](CC(C)C)C(=O)N[C@@H](C)C(=O)N[C@@H](CCC(N)=O)C(=O)N[C@H](C(N)=O)C(C)C)[C@@H](C)CC)[C@@H](C)O)[C@@H](C)CC)[C@@H](C)CC)C(C)C)C(C)C [compound 87] (H-IVLSLDVPIKLK([AEEA-AEEA-γGlu-C18 diacid])QILLKQERQKKQREKAKTNKQILAQV-NH2; N-terminus assumed)
- EC50 (human CRF2α receptor; [1]): 0.23 nM
- EC50 (human CRF2α receptor; [2]): 16.2 nM
- EC50 (rat CRF2R α receptor): 1.49 nM
- EC50 (CRF1R receptor): > 1000 nM
- Emax (CRF1R receptor): -0.2%

Structure (SMILES): CC[C@H](C)[C@H](N)C(=O)N[C@H](C(=O)N[C@@H](CC(C)C)C(=O)N[C@@H](CO)C(=O)N[C@@H](CC(C)C)C(=O)N[C@@H](CC(=O)O)C(=O)N[C@H](C(=O)N1CCC[C@H]1C(=O)N[C@H](C(=O)N[C@@H](CCCCN)C(=O)N[C@@H](CC(C)C)C(=O)N[C@@H](CCCCNC(=O)COCCOCCNC(=O)COCCOCCNC(=O)CC[C@H](NC(=O)CCCCCCCCCCCCCCCCC(=O)O)C(=O)O)C(=O)N[C@@H](CCCCN)C(=O)N[C@H](C(=O)N[C@@H](CC(C)C)C(=O)N[C@@H](CC(C)C)C(=O)N[C@@H](CCCCN)C(=O)N[C@@H](CCC(N)=O)C(=O)N[C@@H](CCC(=O)O)C(=O)N[C@@H](CCCNC(=N)N)C(=O)N[C@@H](CCC(N)=O)C(=O)N[C@@H](CCCCN)C(=O)N[C@@H](CCCCN)C(=O)NC(C)(C)C(=O)N[C@@H](CCCNC(=N)N)C(=O)N[C@@H](CCC(=O)O)C(=O)N[C@@H](CCC(N)=O)C(=O)N[C@@H](C)C(=O)N[C@@H](CCC(=O)O)C(=O)N[C@H](C(=O)N[C@@H](CC(N)=O)C(=O)NC(C)(C)C(=O)N[C@@H](CCC(N)=O)C(=O)N[C@H](C(=O)N[C@@H](CC(C)C)C(=O)N[C@@H](C)C(=O)N[C@@H](CCC(N)=O)C(=O)N[C@H](C(N)=O)C(C)C)[C@@H](C)CC)[C@@H](C)O)[C@@H](C)CC)[C@@H](C)CC)C(C)C)C(C)C [compound 100] (H-IVLSLDVPIKLK([AEEA-AEEA-γGlu-C18 diacid])KILLKQERQKK[Aib]REQAETN[Aib]QILAQV-NH2; N-terminus assumed)
- EC50 (human CRF2α receptor; [1]): 0.51 nM
- EC50 (human CRF2α receptor; [2]): 20.5 nM
- EC50 (rat CRF2R α receptor): 7.52 nM
- EC50 (CRF1R receptor): > 1000 nM
- Emax (CRF1R receptor): 5.06%

Structure (SMILES): CC[C@H](C)[C@H](N)C(=O)N[C@H](C(=O)N[C@@H](CC(C)C)C(=O)N[C@@H](CO)C(=O)N[C@@H](CC(C)C)C(=O)N[C@@H](CC(=O)O)C(=O)N[C@H](C(=O)N1CCC[C@H]1C(=O)N[C@H](C(=O)N[C@@H](CCCCN)C(=O)N[C@@H](CC(C)C)C(=O)N[C@@H](CCCCNC(=O)COCCOCCNC(=O)COCCOCCNC(=O)CC[C@H](NC(=O)CCCCCCCCCCCCCCCCC(=O)O)C(=O)O)C(=O)N[C@@H](CCCCN)C(=O)N[C@H](C(=O)N[C@@H](CC(C)C)C(=O)N[C@@H](CC(C)C)C(=O)N[C@@H](CCCCN)C(=O)N[C@@H](CCC(N)=O)C(=O)N[C@@H](CCC(=O)O)C(=O)N[C@@H](CCCNC(=N)N)C(=O)N[C@@H](CCC(N)=O)C(=O)N[C@@H](CCCCN)C(=O)N[C@@H](CCCCN)C(=O)NC(C)(C)C(=O)N[C@@H](CCCNC(=N)N)C(=O)N[C@@H](CCC(=O)O)C(=O)N[C@@H](CCC(N)=O)C(=O)N[C@@H](C)C(=O)N[C@@H](CCC(=O)O)C(=O)N[C@H](C(=O)N[C@@H](CC(N)=O)C(=O)N[C@@H](CCCCN)C(=O)N[C@@H](CCC(N)=O)C(=O)N[C@H](C(=O)N[C@@H](CC(C)C)C(=O)N[C@@H](CCC(=O)O)C(=O)N[C@@H](CCCNC(=N)N)C(=O)N[C@H](C(N)=O)C(C)C)[C@@H](C)CC)[C@@H](C)O)[C@@H](C)CC)[C@@H](C)CC)C(C)C)C(C)C [compound 101] (H-IVLSLDVPIKLK([AEEA-AEEA-γGlu-C18 diacid])KILLKQERQKK[Aib]REQAETNKQILERV-NH2; N-terminus assumed)
- EC50 (human CRF2α receptor; [1]): 0.11 nM
- EC50 (human CRF2α receptor; [2]): 4.28 nM
- EC50 (rat CRF2R α receptor): 1.02 nM
- EC50 (CRF1R receptor): > 1000 nM
- Emax (CRF1R receptor): -0.34%
